According to patent US20170021014A1, “VACCINE ADJUVANTS FOR CYTOMEGALOVIRUS PREVENTION AND TREATMENT” (THE JOHNS HOPKINS UNIVERSITY, priority 2015, published 2017):

Assays:
MCMV (Smith strain) = experiment: MCMV infection of BALB/c mice; format: in vivo, mouse; details: after infection, 10 mg/kg twice daily for 5 days
Method: Animal work was carried out in strict accordance with the recommendations in the Guide for the Care and Use of Laboratory Animals of the National Institutes of Health. The animal protocol (number MO13M296) was approved by the Institutional Animal Care and Use Committee (IACUC) of Johns Hopkins University. For infection experiments 3-4 week old BALB/c mice were purchased from Harlan Laboratories (Indianapolis, Ind.). […] IMMUNOL. 980-86 (2011)) or saline intraperitoneally. Blood was collected 4 h after the second dose of iE-DAP for measurement of RANTES by ELISA (R&D Biosystems, Minneapolis, Minn.). Mice were infected with 10^6 PFU tissue culture derived MCMV (Smith strain, ATCC, VR-1399) and scarified after 14 days. Intracardiac blood was collected prior to sacrifice for gB real-time PCR assay (Vliegen et al., 98(1) VIRUS RES. 17-25 (2003)). Salivary glands, liver and spleen were harvested and stored at −80° C. Organs were homogenized in DMEM at a final concentration of 100 mg/mL Two million mouse embryonic fibroblast (MEFs) were seeded into 24-well plates. From each sample, 2.5% of the salivary gland or 10% of liver/spleen homogenate was used for infection of MEFs in triplicates. Plaques were counted after three days.
At 14 days' post infection mice were scarified, intracardiac blood was collected and tissue homogenates were prepared for plaque assays.

HIV-1 = details: acutely infected monocyte-derived macrophages and dendritic cells; cited from earlier work
[1] = tested on: pp28-luciferase Towne strain; experiment: pp28-luciferase HCMV replication assay (first and second cycle); format: cell-based, human cytomegalovirus
Method: Human Foreskin Fibroblasts (HFFs) passage 12-16 (ATCC, CRL-2088™) were grown in Dulbecco's Modified Eagle Medium (DMEM) containing 10% fetal bovine serum (FBS) (Gibco, Carlsbad, Calif.) in a 5% CO2 incubator at 37° C. The generation of NOD2-KD HFFs (HFF-shNOD2) and control cells (HFF-GIPZ) was reported. One day prior to infection or treatment, 8×10^4 cells were seeded into each well of 12-well tissue culture plates. Multiplicities of infection were specified for each experiment. The Towne HCMV strain was obtained from ATCC (VR-977). The pp28-luciferase Towne strain which expresses luciferase under the control of the pp28 late promoter has been described. Luciferase activity was measured at 72 or 96 hours post infection (hpi) using the Glomax-Multi+ Detection System (Promega, Madison, Wis.). In second cycle replication assays cell free supernatants from HFFs infected with pp28-luciferase Towne were collected 4 days post completion of first replication cycle (5-10% of total volume/well), and used for infection of fresh HFFs seeded into 12-well plates. Cell lysates were collected after 72 h for luciferase activity. Supernatants from the first cycle were also used to measure virus titer in 12-well plates and plaques were counted at day 8 post infection. A purified preparation of the pp28-luciferase Towne strain was prepared by ultracentrifugation using sucrose gradient. The HCMV TB40 strain was obtained from ATCC (VR-1578). Clinical isolates of HCMV were obtained from the microbiology laboratory at Johns Hopkins Hospital with no identifiers that could be linked to a patient. The Johns Hopkins School of Medicine Office of Human Subject Research Institutional Review Board (IRB-X) determined that the research qualified for an exemption.

With `Nc1nc(O)c2ncn(COC(CO)CO)c2n1` [Ganciclovir] the MCMV inhibition (MCMV (Smith strain)) was “inhibited MCMV”.
In the case of `CCCCOC(=O)[C@@H](CCC(N)=O)NC(=O)[C@H](C)NC(=O)[C@@H](C)O[C@H]1[C@H](O)[C@@H](CO)OC(O)[C@@H]1NC(C)=O` (stereo partly shown) [MB, murabutide], the HIV-1 replication (HIV-1) is given as “significantly inhibits HIV-1 replication”.
With `C[C@H](N)C(=O)N[C@H](CCC(=O)NC(CCCC(N)C(=O)O)C(=O)O)C(=O)O` (stereo partly drawn) [Tri-DAP, L-Ala-γ-D-Glu-meso-diamino-pimelic acid] the “CMV inhibition (luciferase, protein expression, plaques)” value ([1]; Tri-DAP 10 μg/mL after infection, 72 hpi) was “results in CMV inhibition” and the CMV replication ([1]; Tri-DAP 10 μg/mL pretreatment 18 or 72 h, MOI 1) was “inhibits CMV replication”.
